Results: US10351594B2, “Process for preparing compounds having triple activities of thrombolysis, antithrombosis, and radical scavenging” (Shanghai Lumosa Therapeutics Co., Ltd., priority 2013, dated 2019)
Like-named read-outs stand apart in the source and are kept apart here.

Test system: stroke rats
[1] = 1 μmol/kg 5Ak after 4 hours from stroke onset, 1st day
[2] = 1 μmol/kg 5Ak after 4 hours from stroke onset, 2nd day
[3] = 1 μmol/kg 5Ak after 4 hours from stroke onset, 3rd day
[4] = 1 μmol/kg 5Ak after 4 hours from stroke onset, 4th day
[5] = 1 μmol/kg 5Ak after 4 hours from stroke onset, 5th day
[6] = 1 μmol/kg 5Ak after 4 hours from stroke onset, 6th day
[7] = 1 μmol/kg 5Ak after 6 hours from stroke onset, 1st day
[8] = 1 μmol/kg 5Ak after 6 hours from stroke onset, 2nd day
[9] = 1 μmol/kg 5Ak after 6 hours from stroke onset, 3rd day
[10] = 1 μmol/kg 5Ak after 6 hours from stroke onset, 4th day
[11] = 1 μmol/kg 5Ak after 6 hours from stroke onset, 5th day
[12] = 1 μmol/kg 5Ak after 6 hours from stroke onset, 6th day
[13] = 1 μmol/kg 5Ak after 24 hours from stroke onset, 1st day
[14] = 1 μmol/kg 5Ak after 24 hours from stroke onset, 2nd day
[15] = 1 μmol/kg 5Ak after 24 hours from stroke onset, 3rd day
[16] = 1 μmol/kg 5Ak after 24 hours from stroke onset, 4th day
[17] = 1 μmol/kg 5Ak after 24 hours from stroke onset, 5th day
[18] = 1 μmol/kg 5Ak after 24 hours from stroke onset, 6th day
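Note: male SD rats with thrombus-induced cerebral embolism via internal carotid artery, scored daily by Zealonga neurological deficit scale (0 no deficit to 5 death), lower score better.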

Protocol: The therapeutic effect was evaluated by neurological functional scores. The lower the score was, the better the therapeutic effect was. A 10% chloral hydrate solution was injected intraperitoneally into male SD rats at a dosage of 400 mg/kg body weight for anesthesia. A longitudinal incision was made at the center of the neck, and the right common carotid artery trunk was separated (about 3 cm in length). External carotid artery branches were each separated and ligated at the hyoid level, and the internal carotid artery was separated from the swollen part of the neck. The incision of the internal carotid artery and the proximal end of the common carotid artery were clipped respectively with noninvasive arterial clips, and the distal end of the external carotid artery was ligated. A catheter containing 0.5 mL thrombus suspension in normal saline was inserted in the external carotid artery trunk. When the clip on the internal carotid artery was released, the 0.5 mL thrombus suspension in normal saline in the catheter slowly flew from the external carotid artery to its proximal end, and then was injected into the arteries in brain through the internal carotid artery. Subsequently, the proximal end of the internal carotid artery was ligated, the arterial clips on the internal carotid artery and the common carotid artery were released, and blood flow was restored. After the wound was stitched up, 20,000 IU penicillin was intramuscularly injected for prevention from infection. […] Self-comparison was performed each day, and the neurological deficit degree was evaluated by the Zealonga method. A score of 0 indicated no sign of loss in neural function, 1 indicated the front limbs on the undamaged side could not stretch out, 2 indicated walking toward the undamaged side, 3 indicated tail-chasing walking in circles toward the undamaged side, 4 indicated involuntary walking with disturbance of consciousness, and 5 indicated death.

C[C@H](NC(=O)[C@@H]1CCCN1)C(=O)N[C@@H](CCCCN)C(=O)NCCCC[C@H](NC(=O)[C@@H]1Cc2cc(O)c(O)cc2C(C)(C)N1)C(=O)O [Compound 5Ak, 3S-6,7-dihydroxy-1,1-dimethyl-1,2,3,4-tetrahydro-isoquinoline-3-acyl-Lys(Pro-Ala-Lys)]
8: Daily neural function scores, number of rats under 0 score [4] | Daily neural function scores, number of rats under 0 score [6]
0: Daily neural function scores, number of rats under 4 scores [1] | Daily neural function scores, number of rats under 5 scores [1] | Daily neural function scores, number of rats under 3 scores [2] | Daily neural function scores, number of rats under 4 scores [2] | Daily neural function scores, number of rats under 5 scores [2] | Daily neural function scores, number of rats under 3 scores [3] | Daily neural function scores, number of rats under 4 scores [3] | Daily neural function scores, number of rats under 5 scores [3] | Daily neural function scores, number of rats under 3 scores [4] | Daily neural function scores, number of rats under 4 scores [4] | Daily neural function scores, number of rats under 5 scores [4] | Daily neural function scores, number of rats under 2 scores [5] | Daily neural function scores, number of rats under 3 scores [5] | Daily neural function scores, number of rats under 4 scores [5] | Daily neural function scores, number of rats under 5 scores [5] | Daily neural function scores, number of rats under 2 scores [6] | Daily neural function scores, number of rats under 3 scores [6] | Daily neural function scores, number of rats under 4 scores [6] | Daily neural function scores, number of rats under 5 scores [6] | Daily neural function scores, number of rats under 0 score [7] | Daily neural function scores, number of rats under 4 scores [7] | Daily neural function scores, number of rats under 5 scores [7] | Daily neural function scores, number of rats under 0 score [8] | Daily neural function scores, number of rats under 4 scores [8] | Daily neural function scores, number of rats under 5 scores [8] | Daily neural function scores, number of rats under 4 scores [9] | Daily neural function scores, number of rats under 5 scores [9] | Daily neural function scores, number of rats under 3 scores [10] | Daily neural function scores, number of rats under 4 scores [10] | Daily neural function scores, number of rats under 2 scores [11] | Daily neural function scores, number of rats under 3 scores [11] | Daily neural function scores, number of rats under 4 scores [11] | Daily neural function scores, number of rats under 5 scores [11] | Daily neural function scores, number of rats under 2 scores [12] | Daily neural function scores, number of rats under 3 scores [12] | Daily neural function scores, number of rats under 4 scores [12] | Daily neural function scores, number of rats under 5 scores [12] | Daily neural function scores, number of rats under 2 scores [13] | Daily neural function scores, number of rats under 5 scores [13] | Daily neural function scores, number of rats under 4 scores [14] | Daily neural function scores, number of rats under 5 scores [14] | Daily neural function scores, number of rats under 3 scores [15] | Daily neural function scores, number of rats under 4 scores [15] | Daily neural function scores, number of rats under 5 scores [15] | Daily neural function scores, number of rats under 3 scores [16] | Daily neural function scores, number of rats under 4 scores [16] | Daily neural function scores, number of rats under 5 scores [16] | Daily neural function scores, number of rats under 3 scores [17] | Daily neural function scores, number of rats under 4 scores [17] | Daily neural function scores, number of rats under 5 scores [17] | Daily neural function scores, number of rats under 3 scores [18] | Daily neural function scores, number of rats under 4 scores [18] | Daily neural function scores, number of rats under 5 scores [18]
7: Daily neural function scores, number of rats under 1 score [8] | Daily neural function scores, number of rats under 0 score [11]
1: Daily neural function scores, number of rats under 2 scores [1] | Daily neural function scores, number of rats under 3 scores [1] | Daily neural function scores, number of rats under 2 scores [2] | Daily neural function scores, number of rats under 2 scores [3] | Daily neural function scores, number of rats under 1 score [4] | Daily neural function scores, number of rats under 2 scores [4] | Daily neural function scores, number of rats under 3 scores [8] | Daily neural function scores, number of rats under 0 score [9] | Daily neural function scores, number of rats under 3 scores [9] | Daily neural function scores, number of rats under 2 scores [10] | Daily neural function scores, number of rats under 5 scores [10] | Daily neural function scores, number of rats under 0 score [13] | Daily neural function scores, number of rats under 4 scores [13] | Daily neural function scores, number of rats under 3 scores [14] | Daily neural function scores, number of rats under 2 scores [17] | Daily neural function scores, number of rats under 2 scores [18]
no death occurred: rats that died during successive 6-day treatment (1 μmol/kg 5Ak once per day after 4 hours from stroke onset, ten rats) | rats that died during successive 6-day treatment (1 μmol/kg 5Ak once per day after 24 hours from stroke onset, 8 rats)
definite therapeutic effect: therapeutic effect, result in words (1 μmol/kg 5Ak after 4 hours from stroke onset) | therapeutic effect, result in words (1 μmol/kg 5Ak after 6 hours from stroke onset) | therapeutic effect, result in words (1 μmol/kg 5Ak after 24 hours from stroke onset)
5: Daily neural function scores, number of rats under 1 score [1] | Daily neural function scores, number of rats under 0 score [2]
4: Daily neural function scores, number of rats under 1 score [2] | Daily neural function scores, number of rats under 1 score [5] | Daily neural function scores, number of rats under 1 score [7] | Daily neural function scores, number of rats under 2 scores [7] | Daily neural function scores, number of rats under 0 score [10] | Daily neural function scores, number of rats under 1 score [10] | Daily neural function scores, number of rats under 1 score [13] | Daily neural function scores, number of rats under 0 score [17] | Daily neural function scores, number of rats under 1 score [18]
6: Daily neural function scores, number of rats under 1 score [3] | Daily neural function scores, number of rats under 0 score [5] | Daily neural function scores, number of rats under 1 score [9] | Daily neural function scores, number of rats under 0 score [12]
3: Daily neural function scores, number of rats under 0 score [1] | Daily neural function scores, number of rats under 0 score [3] | Daily neural function scores, number of rats under 1 score [12] | Daily neural function scores, number of rats under 1 score [14] | Daily neural function scores, number of rats under 2 scores [14] | Daily neural function scores, number of rats under 0 score [15] | Daily neural function scores, number of rats under 2 scores [15] | Daily neural function scores, number of rats under 1 score [16] | Daily neural function scores, number of rats under 2 scores [16] | Daily neural function scores, number of rats under 1 score [17] | Daily neural function scores, number of rats under 0 score [18]
2: Daily neural function scores, number of rats under 1 score [6] | Daily neural function scores, number of rats under 3 scores [7] | Daily neural function scores, number of rats under 2 scores [8] | Daily neural function scores, number of rats under 2 scores [9] | Daily neural function scores, number of rats under 1 score [11] | Daily neural function scores, number of rats under 3 scores [13] | Daily neural function scores, number of rats under 0 score [14] | Daily neural function scores, number of rats under 1 score [15] | Daily neural function scores, number of rats under 0 score [16]
one: rats that died during successive 6-day treatment (1 μmol/kg 5Ak once per day after 6 hours from stroke onset, n=10)
